Results taken from patent US8494269B2, “Method and system for screening of a to-be-analyzed candidate as a skin-whitening agent” (National Sun Yat-Sen University, priority 2009, dated 2013).

Key:
zebrafish larvae [1] = experiment: Zebrafish larvae skin-whitening screen, number of valid pixels by Image Scion; assay type: in vivo, zebrafish (Danio Rerio); conditions: for mean of the number of "valid pixels" versus concentration of the administered candidate: FIGS. 11, 12 and 13, 48 h exposure, Image Scion; for concentration giving statistically significant reduction of "valid pixels" in the images of the zebrafish vs control group: embryos exposed 48 h in Hank's buffer/DMSO, p<0.05, ANOVA followed by Duncan's method, Image Scion index 150-254; for conclusion of the screening as skin-whitening agent: second feature parameter smaller than the first with p<0.05
Description: The preparation of the zebrafish embryos was similar to, but with small modifications from, that disclosed in M. Westerfield (2007), The Zebrafish Book: A Guide for the Laboratory Use of Zebrafish (Danio Rerio), 5th edit. University of Oregon Press, Eugene, Oreg. First, one female fish and two male fish were put in a breeding tank having an acrylic grid under a water temperature of 28.5 degrees Celsius. Then, the breeding tank was made to undergo a first light-dark cycle of 14 hours of light and 10 hours of darkness. Subsequently, during the second light-dark cycle, the female fish and the male fish would respectively produce eggs and sperms for fertilization so as to obtain fertilized eggs. These fertilized eggs are referred to as fertilized eggs from “the same parental generation”. Next, after an hour, the fertilized eggs were removed from the breeding tank with a dropper, and were disposed in a Petri dish containing the Hank's buffer prepared according to the above-disclosed formula. Later, the Petri dish was disposed in an incubator (RI-80, FIRSTEK, Taiwan) under a controlled temperature of 28.5 degrees Celsius, and a controlled light-dark cycle of 14 hours of light and 10 hours of darkness for a 9-hour breeding process to allow development of the fertilized eggs into embryos. Subsequently, a Leica Z16 APO stereomicroscope (Leica, Heerbrugg, Switzerland) was used for the observation of the development of various embryos. Based on the observations, only well-developed embryos were kept for use in the experiments that followed.
First, arbutin (Sigma, Cat. No. A4256), N-phenylthiourea (Sigma, Cat. No. P7629) and kojic acid (Sigma, Cat. No. K3125) were respectively dissolved in a 2% dimethyl sulfoxide (DMSO) solution prepared from Hank's buffer to result in arbutin solutions with concentrations of 0.1 mM, 0.2 mM, 1 mM, 2 mM, 10 mM and 20 mM, N-phenylthiourea solutions with concentrations of 0.002 mM, 0.02 mM, 0.2 mM, 0.4 mM, 1 mM and 2 mM, and kojic acid solutions with concentrations of 0.2 mM, 1 mM, 2 mM, 20 mM, 40 mM and 100 mM, respectively. Next, each well of a 96-well plate is provided with 100 μL of Hank's buffer. Subsequently, in accordance with the operational conditions set forth below in Table 4, the zebrafish prepared in the way previously described under subsection 2 of section A (Materials used during experimentation) were added respectively to the wells, to which 100 μL of the to-be-analyzed candidates, i.e., arbutin, N-phenylthiourea and kojic acid solutions of various concentrations, were added so as to result in the final concentrations as shown in Table 4. The 96-well plate was then disposed in an incubator under a controlled temperature of 28.5 degrees Celsius, and a controlled light-dark cycle of 14 hours of light and 10 hours of darkness for a 48-hour breeding period to allow the embryos to develop into zebrafish larvae. It should be noted herein that the above procedure was for preparation of a plurality of the “second groups of zebrafish” (i.e., test groups (A2˜A7, N2˜N7, K2˜K7)), while each of the “first groups of zebrafish” (each for a kind of the to-be-tested candidate) were prepared using the same breeding process without the administration of the to-be-analyzed candidates so as to form control groups (A1, N1, K1).
A tricaine methanesulfonate solution (MS-222) with a concentration of 168 ppm was used to anesthetize the zebrafish larvae prepared in Procedure A. Next, a depression slide (Micro Scientific Laboratories, Inc., U.S.A., Cat. No. MM-104SC) containing 1% methyl cellulose (Sigma, Cat. No. M0512) was used to mount the zebrafish. Subsequently, Leica Z16 APO stereomicroscope was used to acquire images of the zebrafish with a 25× magnification rate and a 3.372 ms exposure time.
Image Scion was used to determine the mean of the number of “valid pixels” (i.e., pixels whose grayscale levels fall within a predefined range) in the images corresponding to the zebrafish of the same group. […]

zebrafish larvae [2] = experiment: Zebrafish larvae skin-whitening screen, number of valid pixels by ImageJ version 1.40 g; assay type: in vivo, zebrafish (Danio Rerio); conditions: groups A1-A7, FIG. 14 vs FIG. 11; ImageJ threshold 0-85
Description: • (2) ImageJ version 1.40 g (ImageJ, National Institute of Health, Bethesda, Md., U.S.A.) with operation parameters set in Table 3 below for defining the predefined range for a pixel to be considered a “valid pixel”.
First, arbutin (Sigma, Cat. No. A4256), N-phenylthiourea (Sigma, Cat. No. P7629) and kojic acid (Sigma, Cat. No. K3125) were respectively dissolved in a 2% dimethyl sulfoxide (DMSO) solution prepared from Hank's buffer to result in arbutin solutions with concentrations of 0.1 mM, 0.2 mM, 1 mM, 2 mM, 10 mM and 20 mM, N-phenylthiourea solutions with concentrations of 0.002 mM, 0.02 mM, 0.2 mM, 0.4 mM, 1 mM and 2 mM, and kojic acid solutions with concentrations of 0.2 mM, 1 mM, 2 mM, 20 mM, 40 mM and 100 mM, respectively. Next, each well of a 96-well plate is provided with 100 μL of Hank's buffer. Subsequently, in accordance with the operational conditions set forth below in Table 4, the zebrafish prepared in the way previously described under subsection 2 of section A (Materials used during experimentation) were added respectively to the wells, to which 100 μL of the to-be-analyzed candidates, i.e., arbutin, N-phenylthiourea and kojic acid solutions of various concentrations, were added so as to result in the final concentrations as shown in Table 4. […]

Row | SMILES | mean of the number of "valid pixels" versus concentration of the administered candidate (zebrafish larvae [1]) | concentration giving statistically significant reduction of "valid pixels" in the images of the zebrafish vs control group (zebrafish larvae [1]) | conclusion of the screening as skin-whitening agent (zebrafish larvae [1]) | comparison of results obtained using ImageJ version 1.40 g with those using Image Scion (zebrafish larvae [2])
1 | NC(=S)Nc1ccccc1 [N-phenylthiourea] | decreases with the concentration | at least 0.01 mM | suitable as skin-whitening agents | –
2 | O=c1cc(CO)occ1O [kojic acid] | decreases with the concentration | at least 10 mM | suitable as skin-whitening agents | –
3 | OC[C@H]1O[C@@H](Oc2ccc(O)cc2)[C@H](O)[C@@H](O)[C@@H]1O [arbutin] | decreases with the concentration | at least 0.05 mM | suitable as skin-whitening agents | no significant difference
